Legend:
NPEPPS = biological target: T1, NPEPPS (Homo sapiens, UniProt P55786); experiment: Cell-based NPEPPS activity assay (Q-AMC fluorescence); settings: log10 transformed; EC50 = concentration that elevates 50% NPEPPS activity (150% of DMSO baseline); HEK293T cells
T1 construct: endogenous in cells; host or cells: HEK293T
Procedure: HEK293T cells (AATC) were maintained in a complete media containing DMEM (Gibco 11995-065) in the presence of 10% fetal bovine serum (FBS, Gibco 10082147), […] penicillin and 50 μg/ml streptomycin (Gibco 15140163) at 37° C. with 5% CO2. NPEPPS activity assay was conducted in a fresh-prepared minimal medium containing essential amino acids, vitamin, AlbuMax (Invitrogen 11021-029) in 1×HBS buffer. Black wall, clear bottom 384-well assay plates (Greiner EK-30092) were coated with poly-L-ornithine (0.1 mg/ml, Sigma P3655) overnight and washed once with 1×PBS. 15 μl minimal medium was then added to each well. 250 nL of compounds dissolved in OmniSolve methylsulfoxide (dimethyl sulfoxide, DMSO, Sigma MX1456P) were pinned to each well via Biomek FX^P Liquid Handling Automation (Beckman Coulter) from compound source plates, i.e., either pre-made compound libraries or JMM compounds (20-step, 2-fold dilution) dissolved in OmniSolve DMSO prepared via Biomek automation in 384-well clear V-bottom polypropylene microplates (ThermoScientific 50-823-639). Cells were harvested, resuspended in minimal medium, and seeded at 16,500 cells/15 μl/well in the 384-well assay plates. 24 hrs later, 30 μl 200 μM H-Gln-AMC hydrobromide salt (Q-AMC, Bachem #I-1175) in 1×HBS containing 0.1% DMSO was added into each well. The fluorescent signal at excitation/emission wavelengths of 360/460 nm was measured immediately upon Q-AMC addition and 3 hrs post-Q-AMC. The change in fluorescence is measured as a readout of NPEPPS activity.
To identify small molecules that either increase NPEPPS levels or NPEPPS activity, a cell-based NPEPPS activity assay amenable to high-throughput screening (HTS) by adapting a fluorescent peptidase activity assay^2 was developed. Since NPEPPS is one of the only aminopeptidases capable of cleaving glutamine-peptide bonds^3 and the major aminopeptidase responsible for degradation of poly-glutamine sequences in the brain^4, a fluorogenic compound, glutamine-7-amino-4-methylcoumarin (Q-AMC), was selected as a substrate to measure NPEPPS activity. The peptide bond of Q-AMC is hydrolyzed by NPEPPS to release glutamine and a fluorescent product, 7-amino-4-methylcoumarin (AMC), when Q-AMC is added directly to the cell culture media. This change in fluorescence is measured as a readout of aminopeptidase activity (FIG. 2A). Overexpression of NPEPPS in HEK293T cells results in a significant increase in fluorescence, whereas knock-down or chemical inhibition of NPEPPS decrease fluorescence change (FIG. 2B-D), validating that the changes in fluorescence observed in the Q-AMC-based assay directly correlate with changes in NPEPPS activity. A high-throughput (HTS) screen (201,845 compounds) was conducted at the UCLA MSSR core (FIG. 2E). Follow-up assays and chemical clustering identified three series of compounds with distinct chemical clusters (FIG. 2F).
(§1) To investigate the effects of JMM compounds that enhance NPEPPS activity and assess their cellular toxicity, 139 compounds in the JMM series (i.e., JMM001-JMM139) were tested in dose responses (20-step, 2-fold dilution) using NPEPPS activity and viability assays in HEK293T cells. 76 compounds harboring different modifications produce concentration-dependent enhancement on NPEPPS activity compared to DMSO control (FIG. 4). […] A therapeutic index (TI, a ratio of IC50 over EC50) is used to evaluate the relative safety profiles of the compounds. […] 16 JMM compounds show both improved potency and reduced toxicity (EC50<10 μM and TI>10, Table 1).

HEK293T cells = experiment: Cell viability assay (CellTiter Glo); format: cell-based, human; settings: for IC50: Homo sapiens, HEK-293T, log10 transformed, IC50 = concentration that suppresses 50% cell viability, HEK293T cells; for Therapeutic index: ratio of IC50 (cell viability) over EC50 (NPEPPS activity)
Procedure: HEK293T cells (AATC) were maintained in complete media and cell viability assay was conducted in a fresh-prepared minimal medium containing essential amino acids, vitamin, AlbuMax (Invitrogen 11021-029) in 1×HBS buffer. White 384-well assay plates (Greiner EK-30080) were coated with poly-L-ornithine (0.1 mg/ml) overnight and washed once with 1×PBS. 15 μl minimal medium was then added to each well. 250 nl of compounds dissolved in OmniSolve DMSO were pinned to each well via Biomek FX^P Liquid Handling Automation from compound source plates. Cells were harvested, resuspended in minimal medium, and seeded at 16,500 cells/15 μl/well in the 384-well assay plates. 24 hrs later, 25 μl/well CellTiter Glo reagent (Promega G7572) was added into each well, and luminescence (0.5 second integration time) was acquired following manufacture's protocol. Luminescence count normalized to DMSO control is used as a readout of cell viability.
as §1

T1 sequence (P55786 whole entry): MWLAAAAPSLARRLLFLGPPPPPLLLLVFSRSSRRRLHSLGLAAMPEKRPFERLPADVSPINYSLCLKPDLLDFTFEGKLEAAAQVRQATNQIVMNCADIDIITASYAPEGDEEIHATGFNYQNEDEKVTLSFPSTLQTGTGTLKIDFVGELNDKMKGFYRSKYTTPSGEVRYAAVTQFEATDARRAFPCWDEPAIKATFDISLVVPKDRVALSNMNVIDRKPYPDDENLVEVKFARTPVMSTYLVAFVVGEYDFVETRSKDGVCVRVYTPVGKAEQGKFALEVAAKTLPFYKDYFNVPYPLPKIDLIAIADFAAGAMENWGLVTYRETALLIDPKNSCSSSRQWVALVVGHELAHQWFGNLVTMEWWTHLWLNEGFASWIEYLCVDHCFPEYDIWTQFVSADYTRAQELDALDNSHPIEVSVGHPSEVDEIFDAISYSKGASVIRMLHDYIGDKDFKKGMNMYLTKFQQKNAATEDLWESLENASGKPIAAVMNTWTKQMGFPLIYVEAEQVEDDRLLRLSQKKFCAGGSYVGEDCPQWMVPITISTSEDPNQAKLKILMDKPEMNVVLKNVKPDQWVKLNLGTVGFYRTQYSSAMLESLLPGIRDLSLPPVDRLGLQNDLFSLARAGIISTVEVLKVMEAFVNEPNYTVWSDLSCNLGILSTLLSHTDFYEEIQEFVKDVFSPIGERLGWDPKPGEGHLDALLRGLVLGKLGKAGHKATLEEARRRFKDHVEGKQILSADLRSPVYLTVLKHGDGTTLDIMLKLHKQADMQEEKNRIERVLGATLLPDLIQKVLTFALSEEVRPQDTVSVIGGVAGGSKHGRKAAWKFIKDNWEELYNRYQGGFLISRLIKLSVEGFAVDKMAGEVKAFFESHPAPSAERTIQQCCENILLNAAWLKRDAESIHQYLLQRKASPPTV

SMILES | EC50 (NPEPPS) | IC50 (HEK293T cells) | Therapeutic index (HEK293T cells)
COc1ccc(CNc2ncccn2)cc1OC [JMM048] | 525 µM | 562 µM | 1.09
Clc1ccc(COc2ccc(CNc3nsc4ccc(OCc5ccccc5)cc34)cc2)cc1Cl [JMM103] | 1.05 µM | 1620 µM | 1543.93
COc1ccc(CNc2nsc3c(Br)cccc23)cc1OC [JMM041] | 105 µM | 245 µM | 2.37
COc1ccc(CN(C)c2nsc3ccc(OC)cc23)cc1 [JMM100] | 79.4 µM | 126 µM | 1.56
FC(F)(F)c1ccc(CNc2nccc3ccccc23)cc1 [JMM037] | 112 µM | 95.5 µM | 0.84
COc1ccc(CN(Cc2ccc(C(F)(F)F)cc2)c2nsc3ccccc23)cc1OC [JMM069] | 17.8 µM | 1510 µM | 84.99
FC(F)(F)c1ccc(CNc2nsc3ncccc23)cc1 [JMM059] | 67.6 µM | 120 µM | 1.78
c1ccc(CNc2ccc(CNc3nsc4ccc(OCc5ccccc5)cc34)cc2)cc1 [JMM122, N-(4-(Benzylamino)benzyl)-5-(benzyloxy)benzo[d]isothiazol-3-amine] | 4.68 µM | 324 µM | 69.07
FC(F)(F)c1ccc(CNc2nsc3cnccc23)cc1 [JMM065] | 22.4 µM | 132 µM | 5.91
CN(Cc1ccc(OCc2ccccc2)cc1)c1nsc2ccccc12 [JMM091] | 145 µM | 174 µM | 1.19
c1ccc(COc2ccc(CNc3nsc4ccccc34)cc2)cc1 [JMM014] | 12.9 µM | 22.4 µM | 1.75
Fc1cccc2c(NCc3ccc(C(F)(F)F)cc3)nsc12 [JMM027] | 53.7 µM | 52.5 µM | 0.98
COc1ccc2snc(NCc3ccc(OCc4ccccc4)cc3)c2c1 [JMM094] | 37.2 µM | 178 µM | 4.80
COC(=O)c1ccc(CNc2nsc3ccccc23)cc1 [JMM024] | 158 µM | 437 µM | 2.76
FC(F)(F)c1ccc(CNc2nsc3ccc(Cl)cc23)cc1 [JMM138, 5-Chloro-N-(4-(trifluoromethyl)benzyl)benzo[d]isothiazol-3-amine] | 22.9 µM | 25.1 µM | 1.10
CN(Cc1ccccc1)c1ccc(CNc2nsc3ccc(OCc4ccccc4)cc23)cc1 [JMM125, N-(4-(Benzyl(methyl)amino)benzyl)-5-(benzyloxy)benzo[d]isothiazol-3-amine] | 40.7 µM | 603 µM | 14.75
CN(Cc1ccc(OCc2ccc(Cl)c(Cl)c2)cc1)c1nsc2ccc(OCc3ccccc3)cc12 [JMM109, 5-(Benzyloxy)-N-(4-((3,4-dichlorobenzyl)oxy)benzyl)-N-methylbenzo[d]isothiazol-3-amine] | 4.07 µM | 60.3 µM | 14.99
COc1ccc(Nc2nsc3ccccc23)cc1OC [JMM025] | 372 µM | 575 µM | 1.54
FC(F)(F)Oc1ccc(CNc2nsc3ccccc23)cc1 [JMM054] | 123 µM | 132 µM | 1.08

SMILES | EC50 (NPEPPS) | IC50 (HEK293T cells) | Therapeutic index (HEK293T cells)
FC(F)(F)c1ccc(CNc2nsc3cccnc23)cc1 [JMM060] | 53.7 µM | 102 µM | 1.88
COc1ccc(CNc2n[nH]c3ccccc23)cc1OC [JMM047] | 60.3 µM | 170 µM | 2.85
Cc1ccc(CNc2nsc3ccccc23)cc1 [JMM023] | 51.3 µM | 229 µM | 4.47
Fc1cccc2c(NCc3ccccc3C(F)(F)F)nsc12 [JMM056] | 34.7 µM | 81.3 µM | 2.34
Clc1ccc(C(Nc2nsc3ccccc23)c2ccc(Cl)cc2)cc1 [JMM076] | 9.77 µM | 20 µM | 2.03
FC(F)(F)c1ccc2snc(NCc3ccc(OCc4ccccc4)cc3)c2c1 [JMM134, N-(4-(Benzyloxy)benzyl)-5-(trifluoromethyl)benzo[d]isothiazol-3-amine] | 13.8 µM | 257 µM | 18.60
c1ccc(COc2ccc3snc(NCc4ccc(OCC5CCCCC5)cc4)c3c2)cc1 [JMM127, 5-(Benzyloxy)-N-(4-(cyclohexylmethoxy)benzyl)benzo[d]isothiazol-3-amine] | 11.5 µM | 15.8 µM | 1.38
C[C@H](Nc1nsc2ccccc12)c1cccc2ccccc12 [JMM101] | 70.8 µM | 407 µM | 5.74
CC(Nc1nsc2ccccc12)c1cccc2ccccc12 (stereo not drawn) [JMM080] | 9.33 µM | 105 µM | 11.09
FC(F)(F)c1ccc(CN(CC2CC2)c2nsc3ccccc23)cc1 [JMM133, N-(Cyclopropylmethyl)-N-(4-(trifluoromethyl)benzyl)benzo[d]isothiazol-3-amine] | 5.5 µM | 20.9 µM | 3.78
COc1ccc(C(=O)Nc2nsc3ccccc23)cc1OC [JMM002] | 1020 µM | 1410 µM | 1.36
FC(F)(F)c1ccc(CNc2nsc3ccc(OCc4ccc(C(F)(F)F)cc4)cc23)cc1 [JMM137, N-(4-(Trifluoromethyl)benzyl)-5-((4-(trifluoromethyl)benzyl)oxy)benzo[d]isothiazol-3-amine] | 11.7 µM | 38.9 µM | 3.30
Fc1cc(Cl)ccc1CNc1nsc2ccccc12 [JMM022] | 186 µM | 6460 µM | 34.72
c1ccc2c(NCc3ccc4c(c3)OCCO4)nsc2c1 [JMM017] | 288 µM | 204 µM | 0.71
Cc1ccccc1COc1ccc(CNc2nsc3ccc(OCc4ccccc4)cc23)cc1 [JMM114, 5-(Benzyloxy)-N-(4-((2-methylbenzyl)oxy)benzyl)benzo[d]isothiazol-3-amine] | 26.3 µM | 63.1 µM | 2.42
Brc1ccc(CNc2nsc3ccccc23)cc1 [JMM016] | 126 µM | 47.9 µM | 0.38
Fc1ccccc1CNc1nsc2ccccc12 [JMM073] | 138 µM | 316 µM | 2.30
c1ccc(COc2ccc3snc(NCc4ccc(-c5ccccc5)cc4)c3c2)cc1 [JMM105, N-([1,1′-Biphenyl]-4-ylmethyl)-5-(benzyloxy)benzo[d]isothiazol-3-amine] | 26.3 µM | 53.7 µM | 2.02
